Molecules are shown by their SMILES. Values joined by “and” are separate entries in the source; they are usually repeats but may differ in a detail not shown here. Equal values may be shown once.

The target of series [1] is T1, CB2R (Rattus norvegicus, UniProt Q9QZN9).
T1 construct: from tissue; host or cells: rat spleen: cryosections in vitro, and spleen of living Wistar rats in PET
T1 sequence (Q9QZN9 1-360): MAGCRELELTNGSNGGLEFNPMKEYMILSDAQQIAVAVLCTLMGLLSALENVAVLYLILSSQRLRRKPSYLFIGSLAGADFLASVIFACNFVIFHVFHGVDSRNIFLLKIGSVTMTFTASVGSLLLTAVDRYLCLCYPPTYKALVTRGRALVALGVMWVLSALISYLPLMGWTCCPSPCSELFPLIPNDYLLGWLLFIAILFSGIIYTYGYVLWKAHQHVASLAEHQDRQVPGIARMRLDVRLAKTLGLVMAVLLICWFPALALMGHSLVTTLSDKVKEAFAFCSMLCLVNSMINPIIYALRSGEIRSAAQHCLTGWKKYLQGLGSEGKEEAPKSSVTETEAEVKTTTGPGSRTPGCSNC
It is filed as in vivo. To be noted: male, Wistar, rat, in vivo. As for the experimental part: The dynamic biodistribution of the radiotracer in the lower body of rats was assessed by small animal PET (Nanoscan, Mediso, Hungary) over 60 min with a subsequently T1-weighted MR. Anaesthetized (2% isoflurane, carrier gas mixture of 40% air and 60% O2) male Wistar rats (body weight: 205–308 g, age: 8–10 weeks, no gender-specific differences were taken into account) were kept during imaging on a heated animal bed to sustain body temperature and were pretreated with vehicle (DMSO:Kolliphore EL:0.9% saline, 1:2:7), JHU94620-d8 (1.5 mg kg^−1 bodyweight) or with GW405833 (5 mg kg^−1 bodyweight) 5 min prior tracer application ([^18F]JHU94620-d8: 7.7–28.2 MBq, 0.4 to 3.2 nmol kg^−1 bodyweight), whereby all injections were administered intravenously. For the evaluation of the hCB2R-specific binding of the radiotracer in the brain, female Wistar rats (n = 6, 253–269 g, age: 8 month) were used carrying stereotactically injected constructs of AAV2/7-CaMKII0.4-intron-hCB2R(D80N) in the right striatum and AAV2/7-CaMKII0.4-intron-3flag-eGFP in the control/contralateral striatum (Vandeputte et al. [2011]). 21–26 MBq corresponding to 0.2 to 2.0 nmol kg^−1 bodyweight radiotracer were injected, whereas in displacement studies 5 mg kg^−1 bodyweight GW405833 was administered 20 min after the radiotracer (each n = 3). The PET scans were performed six months after the stereotactic injections of the AAV2/7-constructs.
The acquisitions were performed in normal mode and a coincidence mode 1–5. For subsequent dynamic reconstructions list mode data were sorted into sinograms (12 × 10 s, 6 × 30 s, 5 × 60 s and 10 × 300 s). The frames were reconstructed by Ordered Subset Expectation Maximization applied to 3D (OSEM3D) sinograms corrected for decay and attenuation (4 iterations, 6 subsets and a voxel size of 0.4 mm^3) with the Nucline software v2.01 (Mediso, Budapest, Hungary). Analyses of reconstructed studies were performed with PMOD software (v4.205, PMOD Technologies LLC, Fällanden, Switzerland) and results are expressed in standardized uptake values (SUVs) or normalized to a reference region (SUVr).

Series [2] addresses T1, CB2R. Description: Quantitative autoradiography, rat spleen cryosections. Type of series: binding. The procedure:
For quantitative autoradiography in different species, 10 µm cryosections from mouse, rat and piglet spleen were thawed, dried, and pre-incubated with incubation buffer for 10 min, dried under an airstream. Subsequently, the incubation buffer containing [^18F]JHU94620-d8 (59–137 GBq µmol^−1, 1.7–3.6 nM) was added alone or together with indicated concentrations of the reference compound. Additionally, to assess the non-specific binding of [^18F]JHU94620-d8 to cryosections GW405833 was added instead of the reference compound. After 90 min, cryosections were washed two times for 2 min with ice-cold 50 mM Tris HCl, pH7.4 and 10 s in ddH2O and subsequently dried under an airstream. For the calculation of the radioactivity concentration, 5 µl of five serial 1:2 dilutions of the incubation buffer with [^18F]JHU94620-d8 were air-dried on a microscopic slide. For binding studies in rat spleen cryosections by autoradiography with HLM-derived radiometabolites of [^18F]JHU94620-d8 obtained from the radiometabolite assay, the samples were added to the incubation buffer to a final activity concentration of 0.2 MBq mL^−1 and protocol was followed as described above. Subsequently, the slides were exposed to a phosphor imager plate. After scanning at high sensitivity and a 12.5 µm resolution with a CR35 Bio image plate scanner (Raytest Isotopenmessgeräte GmbH, Straubenhardt, Germany). The analyses of the autoradiographic images were performed with the AIDA 5.1 software (Elysia-Raytest, Angleur, Belgium) resulting in a resolution of 12.617 pixel × 12.616 pixel per µm^2 (1 voxel = 1592 µm^3 ≙ 1.59 10^–3 µg wet tissue) and inhibition curves were created with GraphPad Prism 9.5.1 (GraphPad Inc., La Jolla, CA).
The KD values were calculated with GraphPad Prism according to the modified Cheng-Prusoff method for homologous competitive binding studies, where the KD = Ki = IC50—[radioligand] and the Bmax = specific binding / [radioligand] / ((KD + [radioligand])) (Motulsky and Neubig [2000]), assuming a total protein content of 8.2% (1.3 10^–4 µg protein per voxel) in the spleen (Zaia et al. [2000]) or by determining the protein concentration of the cell membrane lysates using a BCA assay (Thermo Scientific, Braunschweig, Germany). The fractional occupancy defined as occupied binding sites per total binding sites is used to describe the binding fraction specifically bound to CB2R compared to unspecific binding, where [L] is the concentration of the ligand at the start of incubation.

Consider `[2H]C([2H])([18F])C([2H])([2H])C([2H])([2H])C([2H])([2H])n1c(C)c(C)s/c1=N\C(=O)C1C(C)(C)C1(C)C` [[^18F]JHU94620-d8], for which, at CB2R [1], the “SUVr(spleen-to-blood) at late time points” value is “about 1.5” and the “spleen SUVmean at late time points” value is recorded as “about 0.5 SUVmean”. Further, the Kd on CB2R [2] (KD values determined by autoradiography, rat and mouse spleen (range over both species)) is 0.74 to 1.98 nM. The compound also displayed a Kd on CB2R [2] (KD, rat spleen cryosection, homologous displacement autoradiography, n = 3) of 0.74 nM. Also, the “specific binding to CB2R” value at CB2R [2] (rat spleen cryosections, blocking with 10 µM GW405833 or self-blocking) is 48 ± 6% and 48%. This compound also came in with a Bmax on CB2R [2] (spleen of rats) of 0.08 pmol mg^−1 protein.

As usually defined, the Kd is the constant that tells how readily two partners part at equilibrium. The low end stands for a tighter complex, the high end for a looser complex.

These data come from paper PMC11666850, “Development and evaluation of deuterated [^18F]JHU94620 isotopologues for the non-invasive assessment of the cannabinoid type 2 receptor in brain” (EJNMMI Radiopharmacy and Chemistry, 2024).
